Assay results as given in US7683168B2, “Compositions of novel opioid compounds and method of use thereof” (priority 2005, dated 2010).

Columns and labels:
human mu opioid receptor = target: T1, human mu opioid receptor (Homo sapiens, UniProt P35372); assay: radioligand binding, human mu opioid receptor, CHO cell membranes; conditions: species not given, read-out: μ
T1 construct: purchased Perkin Elmer, Boston, Mass; 6110535; host or cells: CHO cells

human delta receptor = target: T2, human delta receptor (Homo sapiens, UniProt P41143); assay: radioligand binding, human delta receptor, HEK-293 cell membranes; conditions: cell not marked (rat), species not given, read-out: δ
T2 construct: purchased Perkin Elmer, Boston, Mass; 6110549; host or cells: HEK-293 cells

mouse vas deferens = assay: electrically stimulated mouse vas deferens (MVD) ED50; assay type: cell-based; conditions: ED50, inhibition of electrically induced contractions

T2 sequence (P41143 whole entry): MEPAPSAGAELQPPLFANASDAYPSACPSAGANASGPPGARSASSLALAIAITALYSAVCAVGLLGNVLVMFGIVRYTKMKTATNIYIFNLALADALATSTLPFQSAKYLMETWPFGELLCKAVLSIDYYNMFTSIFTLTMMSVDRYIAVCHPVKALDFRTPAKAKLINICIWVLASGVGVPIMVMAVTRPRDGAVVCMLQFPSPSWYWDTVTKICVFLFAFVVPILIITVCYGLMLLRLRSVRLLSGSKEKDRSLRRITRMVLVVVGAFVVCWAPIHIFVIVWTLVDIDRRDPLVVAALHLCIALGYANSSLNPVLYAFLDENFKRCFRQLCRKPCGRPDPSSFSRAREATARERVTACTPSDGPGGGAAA
T1 sequence (P35372 whole entry): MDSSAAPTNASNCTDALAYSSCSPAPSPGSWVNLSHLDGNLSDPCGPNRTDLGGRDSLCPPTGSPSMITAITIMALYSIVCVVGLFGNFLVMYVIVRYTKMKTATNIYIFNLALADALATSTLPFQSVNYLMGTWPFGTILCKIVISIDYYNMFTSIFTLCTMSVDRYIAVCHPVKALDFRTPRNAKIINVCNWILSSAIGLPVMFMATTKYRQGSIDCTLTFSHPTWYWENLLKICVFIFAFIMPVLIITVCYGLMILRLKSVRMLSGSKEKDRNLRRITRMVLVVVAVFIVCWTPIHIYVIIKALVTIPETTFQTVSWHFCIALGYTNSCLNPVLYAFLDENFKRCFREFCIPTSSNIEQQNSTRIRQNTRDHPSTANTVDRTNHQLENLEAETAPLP

C[C@@H]1CN(C(c2cccc(O)c2)c2cccc(C(=O)N3CCCN(CC(=O)O)CC3)c2)[C@@H](C)CN1Cc1cccc(F)c1 (stereo partly shown)
Ki (human mu opioid receptor): 3.1 nM

CCOC(=O)CCCN1CCCN(C(=O)c2cccc(C(c3cccc(O)c3)N3C[C@@H](C)N(CC4CC4)C[C@@H]3C)c2)CC1 (stereo partly shown)
Ki (human delta receptor): 10.3 nM
Ki (human mu opioid receptor): 3.9 nM
EC50 (mouse vas deferens): 92.5 nM

C[C@@H]1CN(C(c2cccc(O)c2)c2cccc(C(=O)N3CCCN(CCCC(=O)O)CC3)c2)[C@@H](C)CN1CC1CC1 (stereo partly shown)
Ki (human delta receptor): 527 nM
Ki (human mu opioid receptor): 26.5 nM
EC50 (mouse vas deferens): 60.9 nM

CCOC(=O)CCCCN1CCCN(C(=O)c2cccc(C(c3cccc(O)c3)N3C[C@@H](C)N(CC4CC4)C[C@@H]3C)c2)CC1 (stereo partly shown)
Ki (human delta receptor): 88.5 nM
Ki (human mu opioid receptor): 29.9 nM
EC50 (mouse vas deferens): 116 nM

C[C@@H]1CN(C(c2cccc(O)c2)c2cccc(C(=O)N3CCCN(CCCCC(=O)O)CC3)c2)[C@@H](C)CN1CC1CC1 (stereo partly shown)
Ki (human delta receptor): 62.1 nM
Ki (human mu opioid receptor): 558 nM
EC50 (mouse vas deferens): 77.5 nM

C=CCN1C[C@H](C)N(C(c2cccc(O)c2)c2cccc(C(=O)N3CCCN(CCCCCC(=O)OCC)CC3)c2)C[C@H]1C (stereo partly shown)
Ki (human delta receptor): 3.2 nM
Ki (human mu opioid receptor): 21.3 nM
EC50 (mouse vas deferens): 43.3 nM

CCOC(=O)CCCCCN1CCCN(C(=O)c2cccc(C(c3cccc(O)c3)N3C[C@@H](C)N(Cc4ccccc4)C[C@@H]3C)c2)CC1 (stereo partly shown)
Ki (human delta receptor): 3.7 nM
Ki (human mu opioid receptor): 23.4 nM
EC50 (mouse vas deferens): 29.6 nM

CCOC(=O)CCCCCN1CCCN(C(=O)c2cccc(C(c3cccc(O)c3)N3C[C@@H](C)N(Cc4cccc(F)c4)C[C@@H]3C)c2)CC1 (stereo partly shown)
Ki (human delta receptor): 12.9 nM
Ki (human mu opioid receptor): 58.5 nM
EC50 (mouse vas deferens): 156 nM

C[C@@H]1CN(C(c2cccc(O)c2)c2cccc(C(=O)N3CCCN(CCCCCC(=O)O)CC3)c2)[C@@H](C)CN1Cc1cccc(F)c1 (stereo partly shown)
Ki (human delta receptor): 25.1 nM
Ki (human mu opioid receptor): 222 nM
EC50 (mouse vas deferens): 16.2 nM

CCOC(=O)CCCCCN1CCCN(C(=O)c2cccc(C(c3cccc(O)c3)N3C[C@@H](C)N(CC4CC4)C[C@@H]3C)c2)CC1 (stereo partly shown)
Ki (human delta receptor): 23.5 nM
Ki (human mu opioid receptor): 9.3 nM
EC50 (mouse vas deferens): 1040 nM

C[C@@H]1CN(C(c2cccc(O)c2)c2cccc(C(=O)N3CCCN(CCCCCC(=O)O)CC3)c2)[C@@H](C)CN1CC1CC1 (stereo partly shown)
Ki (human delta receptor): 5.6 nM
Ki (human mu opioid receptor): 20.3 nM
EC50 (mouse vas deferens): 110 nM

C=CCN1C[C@H](C)N(C(c2cccc(O)c2)c2cccc(C(=O)N3CCCN(CCCCCCC(=O)OCC)CC3)c2)C[C@H]1C (stereo partly shown)
Ki (human delta receptor): 3.1 nM
Ki (human mu opioid receptor): 3.9 nM
EC50 (mouse vas deferens): 52.3 nM

C=CCN1C[C@H](C)N(C(c2cccc(O)c2)c2cccc(C(=O)N3CCCN(CCCCCCC(=O)O)CC3)c2)C[C@H]1C (stereo partly shown)
Ki (human delta receptor): 5.6 nM
Ki (human mu opioid receptor): 8.3 nM
EC50 (mouse vas deferens): 34.9 nM

CCOC(=O)CCCCCCN1CCCN(C(=O)c2cccc(C(c3cccc(O)c3)N3C[C@@H](C)N(Cc4ccccc4)C[C@@H]3C)c2)CC1 (stereo partly shown)
Ki (human delta receptor): 2.4 nM
Ki (human mu opioid receptor): 3.8 nM
EC50 (mouse vas deferens): 28.6 nM

C[C@@H]1CN(C(c2cccc(O)c2)c2cccc(C(=O)N3CCCN(CCCCCCC(=O)O)CC3)c2)[C@@H](C)CN1Cc1ccccc1 (stereo partly shown)
Ki (human delta receptor): 4.9 nM
Ki (human mu opioid receptor): 6.3 nM
EC50 (mouse vas deferens): 10.4 nM

CCOC(=O)CCCCCCN1CCCN(C(=O)c2cccc(C(c3cccc(O)c3)N3C[C@@H](C)N(Cc4cccc(F)c4)C[C@@H]3C)c2)CC1 (stereo partly shown)
Ki (human delta receptor): 13.3 nM
Ki (human mu opioid receptor): 7 nM
EC50 (mouse vas deferens): 245 nM

C[C@@H]1CN(C(c2cccc(O)c2)c2cccc(C(=O)N3CCCN(CCCCCCC(=O)O)CC3)c2)[C@@H](C)CN1Cc1cccc(F)c1 (stereo partly shown)
Ki (human delta receptor): 141 nM
Ki (human mu opioid receptor): 222 nM
EC50 (mouse vas deferens): 109 nM

CCOC(=O)CCCCCCN1CCCN(C(=O)c2cccc(C(c3cccc(O)c3)N3C[C@@H](C)N(CC4CC4)C[C@@H]3C)c2)CC1 (stereo partly shown)
Ki (human delta receptor): 44.3 nM
Ki (human mu opioid receptor): 8 nM
EC50 (mouse vas deferens): 88.1 nM

C[C@@H]1CN(C(c2cccc(O)c2)c2cccc(C(=O)N3CCCN(CCCCCCC(=O)O)CC3)c2)[C@@H](C)CN1CC1CC1 (stereo partly shown)
Ki (human delta receptor): 50.6 nM
Ki (human mu opioid receptor): 40.7 nM
EC50 (mouse vas deferens): 339 nM

C=CCN1C[C@H](C)N(C(c2cccc(O)c2)c2cccc(C(=O)N3CCCN(Cc4cccc(C(=O)OC)c4)CC3)c2)C[C@H]1C (stereo partly shown)
EC50 (mouse vas deferens): 19.6 nM

C=CCN1C[C@H](C)N(C(c2cccc(O)c2)c2cccc(C(=O)N3CCCN(Cc4ccccc4C(=O)OC)CC3)c2)C[C@H]1C (stereo partly shown)
EC50 (mouse vas deferens): 21.8 nM

CCOC(=O)N1CCN(C(=O)c2cccc([C@H](c3cccc(O)c3)N3C[C@@H](C)N(Cc4cccc(F)c4)C[C@@H]3C)c2)CC1 [Example 60, 4-{3-[(R)-[(2S,5R)-4-(3-Fluorobenzyl)-2,5-dimethylpiperazin-1-yl]-(3-hydroxyphenyl)methyl]benzoyl}piperazine-1-carboxylic acid ethyl ester]
Ki (human delta receptor): 13.1 nM
Ki (human mu opioid receptor): 9.8 nM
EC50 (mouse vas deferens): 47.2 nM

CCOC(=O)CN1CCN(C(=O)c2cccc([C@H](c3cccc(O)c3)N3C[C@@H](C)N(Cc4cccc(F)c4)C[C@@H]3C)c2)CC1 [Example 66, (4-{3-[(R)-[(2S,5R)-4-(3-Fluoro-benzyl)-2,5-dimethyl-piperazin-1-yl]-(3-hydroxy-phenyl)-methyl]-benzoyl}-piperazin-1-yl)-acetic acid ethyl ester]
Ki (human delta receptor): 1.3 nM
Ki (human mu opioid receptor): 5.05 nM
EC50 (mouse vas deferens): 22 nM

CCOC(=O)CN1CCN(C(=O)c2cccc([C@H](c3cccc(O)c3)N3C[C@@H](C)N(CC4CC4)C[C@@H]3C)c2)CC1 [Example 70, (4-{3-[(R)-((2S,5R)-4-Cyclopropylmethyl-2,5-dimethyl-piperazin-1-yl)-(3-hydroxy-phenyl)-methyl]-benzoyl}-piperazin-1-yl)-acetic acid ethyl ester]
Ki (human delta receptor): 3.5 nM
Ki (human mu opioid receptor): 8.7 nM
EC50 (mouse vas deferens): 55.4 nM

C[C@@H]1CN([C@@H](c2cccc(O)c2)c2cccc(C(=O)N3CCN(CC(=O)O)CC3)c2)[C@@H](C)CN1CC1CC1 [Example 71]
Ki (human delta receptor): 6.1 nM
Ki (human mu opioid receptor): 81.8 nM
EC50 (mouse vas deferens): 35.9 nM

CCOC(=O)CCCN1CCN(C(=O)c2cccc([C@H](c3cccc(O)c3)N3C[C@@H](C)N(CC4CC4)C[C@@H]3C)c2)CC1 [Example 77, 4-(4-{3-[(R)-((2S,5R)-4-Cyclopropylmethyl-2,5-dimethyl-piperazin-1-yl)-(3-hydroxy-phenyl)-methyl]-benzoyl}-piperazin-1-yl)-butyric acid ethyl ester]
Ki (human delta receptor): 402 nM
Ki (human mu opioid receptor): 4.4 nM
EC50 (mouse vas deferens): 111 nM

CCOC(=O)CCCN1CCN(C(=O)c2cccc([C@H](c3cccc(O)c3)N3C[C@@H](C)N(Cc4cccc(F)c4)C[C@@H]3C)c2)CC1 [Example 81, 4-(4-{3-[(R)-((2S,5R)-4-(3-Fluorobenzyl)-2,5-dimethyl-piperazin-1-yl)-(3-hydroxy-phenyl)-methyl]-benzoyl}-piperazin-1-yl)-butyric acid ethyl ester]
Ki (human delta receptor): 12.7 nM
Ki (human mu opioid receptor): 4.9 nM
EC50 (mouse vas deferens): 44.8 nM

CCOC(=O)CCCCN1CCN(C(=O)c2cccc([C@H](c3cccc(O)c3)N3C[C@@H](C)N(Cc4cccc(F)c4)C[C@@H]3C)c2)CC1 [Example 87, 5-(4-{3-[(R)-((2S,5R)-4-(3-Fluorobenzyl)-2,5-dimethyl-piperazin-1-yl)-(3-hydroxy-phenyl)-methyl]-benzoyl}-piperazin-1-yl)-pentanoic acid ethyl ester]
Ki (human delta receptor): 10.8 nM
Ki (human mu opioid receptor): 21.3 nM
EC50 (mouse vas deferens): 36.2 nM

CCOC(=O)CCCCCN1CCN(C(=O)c2cccc([C@H](c3cccc(O)c3)N3C[C@@H](C)N(CC4CC4)C[C@@H]3C)c2)CC1 [Example 100, 6-(4-{3-[(R)-((2S,5R)-4-Cyclopropylmethyl-2,5-dimethyl-piperazin-1-yl)-(3-hydroxy-phenyl)-methyl]-benzoyl}-piperazin-1-yl)-hexanoic acid ethyl ester]
EC50 (mouse vas deferens): 170 nM

C[C@@H]1CN([C@@H](c2cccc(O)c2)c2cccc(C(=O)N3CCN(CCCCCC(=O)O)CC3)c2)[C@@H](C)CN1CC1CC1 [Example 101, 6-(4-{3-[(R)-((2S,5R)-4-Cyclopropylmethyl-2,5-dimethyl-piperazin-1-yl)-(3-hydroxy-phenyl)-methyl]-benzoyl}-piperazin-1-yl)-hexanoic acid]
EC50 (mouse vas deferens): 75.8 nM

C=CCN1C[C@H](C)N([C@@H](c2cccc(O)c2)c2cccc(C(=O)N3CCN(CCCCCCC(=O)OCC)CC3)c2)C[C@H]1C [Example 108, 7-(4-{3-[(R)-((2S,5R)-4-Allyl-2,5-dimethyl-piperazin-1-yl)-(3-hydroxy-phenyl)-methyl]-benzoyl}-piperazin-1-yl)-heptanoic acid ethyl ester]
EC50 (mouse vas deferens): 31.7 nM

CCOC(=O)CCCCCCN1CCN(C(=O)c2cccc([C@H](c3cccc(O)c3)N3C[C@@H](C)N(Cc4cccc(F)c4)C[C@@H]3C)c2)CC1 [Example 112, 7-(4-{3-[(R)-[(2S,5R)-4-(3-Fluoro-benzyl)-2,5-dimethyl-piperazin-1-yl]-(3-hydroxy-phenyl)-methyl]-benzoyl}-piperazin-1-yl)-heptanoic acid ethyl ester]
Ki (human mu opioid receptor): 5.9 nM
EC50 (mouse vas deferens): 111 nM

CCOC(=O)CCCCCCN1CCN(C(=O)c2cccc([C@H](c3cccc(O)c3)N3C[C@@H](C)N(CC4CC4)C[C@@H]3C)c2)CC1 [Example 114, 7-(4-{3-[(R)-((2S,5R)-4-Cyclopropylmethyl-2,5-dimethyl-piperazin-1-yl)-(3-hydroxy-phenyl)-methyl]-benzoyl}-piperazin-1-yl)-heptanoic acid ethyl ester]
EC50 (mouse vas deferens): 221 nM

C[C@@H]1CN([C@@H](c2cccc(O)c2)c2cccc(C(=O)N3CCN(CCCCCCC(=O)O)CC3)c2)[C@@H](C)CN1CC1CC1 [Example 115, 7-(4-{3-[(R)-((2S,5R)-4-Cyclopropylmethyl-2,5-dimethyl-piperazin-1-yl)-(3-hydroxy-phenyl)-methyl]-benzoyl}-piperazin-1-yl)-heptanoic acid]
Ki (human delta receptor): 22 nM
EC50 (mouse vas deferens): 85.8 nM

C[C@@H]1CN([C@@H](c2cccc(O)c2)c2cccc(C(=O)N3CCN(CC(=O)O)CC3)c2)[C@@H](C)CN1Cc1ccc(F)cc1 [Example 116, (4-{3-[(R)-[(2S,5R)-4-(4-Fluoro-benzyl)-2,5-dimethyl-piperazin-1-yl]-(3-hydroxy-phenyl)-methyl]-benzoyl}-piperazin-1-yl)-acetic acid]
Ki (human delta receptor): 0.83 nM
EC50 (mouse vas deferens): 1.95 nM
